{"source": "paper PMC6093650", "about": "“Antidepressive and anxiolytic effects of ostruthin, a TREK-1 channel activator” (PLoS ONE, 2018)", "key": {"TREK-1 channel": {"biological_target": "T1, TREK-1 channel (Homo sapiens, UniProt O95069)", "T1 construct": "expressed in transfected cells", "T1 sequence (O95069 1-426)": "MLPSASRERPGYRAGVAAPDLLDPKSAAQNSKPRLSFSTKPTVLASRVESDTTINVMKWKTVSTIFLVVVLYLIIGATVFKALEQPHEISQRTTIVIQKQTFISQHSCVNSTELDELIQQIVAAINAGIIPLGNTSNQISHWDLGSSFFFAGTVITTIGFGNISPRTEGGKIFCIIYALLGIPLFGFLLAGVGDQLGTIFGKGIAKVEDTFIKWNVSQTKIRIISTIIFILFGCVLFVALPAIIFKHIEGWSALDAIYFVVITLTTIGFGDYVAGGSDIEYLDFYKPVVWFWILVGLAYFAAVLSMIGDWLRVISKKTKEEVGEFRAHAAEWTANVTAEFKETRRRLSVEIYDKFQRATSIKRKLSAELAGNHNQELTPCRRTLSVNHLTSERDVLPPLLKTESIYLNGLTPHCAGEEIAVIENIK", "assay": "whole-cell patch-clamp of TREK-1 currents in TR-1 cells (293T stably expressing TREK-1)", "assay_type": "cell-based", "details": "bupivacaine 3 mM, after 100 μM ostruthin", "source_text": "(§1) For recordings of K^+ channel currents, we prepared stable cell lines for TREK-1, TWIK-related acid-sensitive K^+ channel (TASK-1), strongly inwardly rectifying K^+ channel (Kir2.1), and human ether-a-go-go-related gene (HERG-1) channels and transiently expressed other channels in 293T cells using a calcium-phosphate transfection method. For the establishment of the stable lines, we used lentiviral vectors, and the preparation methods for the lentiviral vectors were described in our previous report. TR-1 cells, which stably expressed TREK-1 channel and were grown on a small cover glass (3 × 18 mm), were placed in a recording chamber with an internal volume of 200 μl. Whole-cell currents were recorded in Tyrode solution using an Axopatch 200B amplifier (Axon Instruments, Foster City, CA) at 25°C. […] Perfusion (100 μl/min) was continued to maintain the water level throughout recordings. pH and osmotic pressure of solutions were measured with a pH meter (Horiba, Kyoto, Japan) and a freezing point osmometer (Knauer, Berlin, Germany), respectively.\nWe previously prepared a lentiviral vector that expressed the TREK-1 channel and using this vector we established a cell line, TR-1, which stably expressed the channel. […] Immediately after whole-cell access, small outward currents were recorded in response to depolarizing step pulses (Fig 1A, 0 min). […]"}, "TREK-2 channel [1]": {"biological_target": "T2, TREK-2 channel (Homo sapiens, UniProt P57789)", "T2 construct": "expressed in transfected cells; host or cells: 293T (transient, calcium-phosphate transfection)", "T2 sequence (P57789 1-538)": "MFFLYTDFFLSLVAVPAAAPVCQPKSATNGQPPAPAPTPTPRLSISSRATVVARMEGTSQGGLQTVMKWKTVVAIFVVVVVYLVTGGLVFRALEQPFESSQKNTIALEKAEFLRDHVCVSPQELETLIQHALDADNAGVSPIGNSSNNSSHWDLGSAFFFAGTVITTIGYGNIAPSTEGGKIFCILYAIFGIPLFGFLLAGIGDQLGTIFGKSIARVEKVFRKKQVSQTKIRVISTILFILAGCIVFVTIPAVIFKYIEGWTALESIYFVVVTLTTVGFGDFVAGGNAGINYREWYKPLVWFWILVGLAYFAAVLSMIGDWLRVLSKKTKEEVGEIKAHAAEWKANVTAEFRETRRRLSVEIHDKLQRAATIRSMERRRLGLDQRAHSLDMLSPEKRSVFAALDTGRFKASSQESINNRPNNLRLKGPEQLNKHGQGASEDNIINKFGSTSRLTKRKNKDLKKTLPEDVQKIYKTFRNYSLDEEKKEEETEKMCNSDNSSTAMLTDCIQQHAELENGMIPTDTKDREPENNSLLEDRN", "set-up": "method as in PMID 10880510", "details": "100 μM; cited from earlier work"}, "TREK-2 channel [2]": {"biological_target": "T2, TREK-2 channel", "assay": "whole-cell patch-clamp of TREK-2 currents transiently expressed in 293T cells", "assay_type": "cell-based", "details": "bupivacaine 3 mM, after ostruthin", "source_text": "as §1\nTREK-1 channels are known to be activated by low pH and mechanical stretch. […] To test these possibilities, we measured the pH of Tyrode solution before and after addition of 100 μM ostruthin, and observed no significant change (from 7.31 ± 0.17 to 7.33 ± 0.22, p = 0.645, paired t-test, n = 6). […]"}, "[3]": {"system": "depression-like behavior of mice", "assay": "tail suspension test", "assay_type": "in vivo", "details": "amlodipine experiment: single compound vs PBS, ostruthin 5 mg/kg or amlodipine 10 mg/kg, n = 9 and 13", "source_text": "(§2) Male ICR mice (n = 317 in total) aged 5 weeks and weighing 32 ± 2 g were purchased from Shimizu Laboratory Supplies (Kyoto, Japan). For the social defeat stress test, we used 28 C57BL/6J mice (5 weeks old, Shimizu Laboratory Supplies) and 30 ICR mice (7–8 weeks old, Charles River Labs Japan, Yokohama, Kanagawa, Japan). Mice were maintained for at least 1 week prior to experiments. Animals were kept in groups in plastic cages. They had free access to food and water, and were kept in a 12-h light/dark cycle (08:00–20:00). Experiments were carried out between 10:00 and 18:00 in a quiet and air-conditioned experimental room, in which mice were habituated for at least 30 min before each experiment. Animal experiments were performed in accordance with the guidelines of the Physiological Society of Japan and were approved by the Committees on Animal Experiments at Kansai Medical University and the Kurashiki University of Science and the Arts. Ostruthin was initially dissolved in DMSO at higher concentration (100 mM) and then diluted in phosphate-buffered saline (PBS). The diluted solution was mixed vigorously for more than 10 min before the experiments, and an equal volume of DMSO was added to PBS as a control. PBS and ostruthin were administered intraperitoneally 30 min before mice behavioral tests (0.01 ml/g body weight). Each animal was used only once, except for the wheel running test, which was carried out immediately after elevated plus maze.\nThe tail suspension test was performed in accordance with a method reported previously. The mouse was hung on a hook using adhesive tape placed 2 cm from the extremity of its tail 50 cm above the table. The amount of time spent immobile was recorded for 5 min."}, "[4]": {"system": "mice anxiety-like behavior", "assay": "elevated plus maze", "assay_type": "in vivo", "details": "amlodipine experiment: single compound vs PBS, ostruthin 5 mg/kg or amlodipine 10 mg/kg, n = 6", "source_text": "as §2\nThe elevated plus maze apparatus consisted of four arms set in a cross pattern from a neutral central square (6 × 6 cm). Two opposite arms were delimited by vertical walls (closed arms, 30 × 15 × 6 cm), whereas the other two arms had unprotected edges (open arms, 30 × 6 cm). The maze was elevated 40 cm above the floor. At the beginning of each 5 min test session, a mouse was placed in the central neutral area, facing one of the open arms. The total number of the entries to open arms and time spent in the open arms were measured. After removal of the animal, the apparatus was cleaned and wiped."}}}
{"smiles": "CCCCN1CCCCC1C(=O)Nc1c(C)cccc1C", "note": "(centres unmarked) [bupivacaine, reference compound]", "values": [{"measurement": "inhibition of the ostruthin-increased TREK-1 current", "setting": "TREK-1 channel", "result": "inhibited nearly completely"}, {"measurement": "sensitivity of TREK-2 channel to bupivacaine", "setting": "TREK-2 channel [1]", "result": "insensitive"}, {"measurement": "block of TREK-2 current", "setting": "TREK-2 channel [2]", "result": "almost blocked the current"}]}
{"smiles": "CCOC(=O)C1=C(COCCN)NC(C)=C(C(=O)OC)C1c1ccccc1Cl", "note": "(centres unmarked) [amlodipine, reference compound]", "values": [{"measurement": "time spent immobile", "setting": "[3]", "result": "non-significantly decreased"}, {"measurement": "number of entries to the open arm", "setting": "[4]", "result": "non-significantly decreased"}]}
